# According to PubChem BioAssay (NCI):
#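 Where inhibition never reached the appropriate level, the endpoint shown equals the highest concentration tested. Otherwise, values were interpolated linearly from a five-concentration, 48-hour dose response in 96-well plates. TGI: concentration producing complete growth inhibition.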
# Columns and labels:
# Assay in all cases: NCI tumour cell line growth inhibition, 48 h
# 786-0 renal = system: 786-0 renal
# A498 renal = system: A498 renal
# A549 NSCLC = system: A549 NSCLC
# ACHN renal = system: ACHN renal
# CAKI-1 renal = system: CAKI-1 renal
# CCRF-CEM leukemia = system: CCRF-CEM leukemia
# COLO 205 colon = system: COLO 205 colon
# DLD-1 colon = system: DLD-1 colon
# DMS 273 small cell lung = system: DMS 273 small cell lung
# EKVX NSCLC = system: EKVX NSCLC
# HCC-2998 colon = system: HCC-2998 colon
# HCT-116 colon = system: HCT-116 colon
# HCT-15 colon = system: HCT-15 colon
# HL-60(TB) leukemia = system: HL-60(TB) leukemia
# HOP-18 NSCLC = system: HOP-18 NSCLC
# HOP-62 NSCLC = system: HOP-62 NSCLC
# HOP-92 NSCLC = system: HOP-92 NSCLC
# HT29 colon = system: HT29 colon
# IGROV1 ovarian = system: IGROV1 ovarian
# K-562 leukemia = system: K-562 leukemia
# KM12 colon = system: KM12 colon
# KM20L2 colon = system: KM20L2 colon
# LOX IMVI melanoma = system: LOX IMVI melanoma
# LXFL 529 NSCLC = system: LXFL 529 NSCLC
# M14 melanoma = system: M14 melanoma
# M19-MEL melanoma = system: M19-MEL melanoma
# MALME-3M melanoma = system: MALME-3M melanoma
# MOLT-4 leukemia = system: MOLT-4 leukemia
# NCI-H226 lung = system: NCI-H226 lung
# NCI-H23 lung = system: NCI-H23 lung
# NCI-H460 lung = system: NCI-H460 lung
# NCI-H522 lung = system: NCI-H522 lung
# OVCAR-3 ovarian = system: OVCAR-3 ovarian
# OVCAR-4 ovarian = system: OVCAR-4 ovarian
# OVCAR-5 ovarian = system: OVCAR-5 ovarian
# OVCAR-8 ovarian = system: OVCAR-8 ovarian
# RPMI-8226 leukemia = system: RPMI-8226 leukemia
# SF-268 CNS = system: SF-268 CNS
# SF-295 CNS = system: SF-295 CNS
# SF-539 CNS = system: SF-539 CNS
# SK-MEL-2 melanoma = system: SK-MEL-2 melanoma
# SK-MEL-28 melanoma = system: SK-MEL-28 melanoma
# SK-MEL-5 melanoma = system: SK-MEL-5 melanoma
# SK-OV-3 ovarian = system: SK-OV-3 ovarian
# SN12C renal = system: SN12C renal
# SNB-19 CNS = system: SNB-19 CNS
# SNB-75 CNS = system: SNB-75 CNS
# SR leukemia = system: SR leukemia
# SW-620 colon = system: SW-620 colon
# TK-10 renal = system: TK-10 renal
# U251 CNS = system: U251 CNS
# UACC-257 melanoma = system: UACC-257 melanoma
# UACC-62 melanoma = system: UACC-62 melanoma
# UO-31 renal = system: UO-31 renal
# BT-549 breast = system: BT-549 breast
# DU-145 prostate = system: DU-145 prostate
# HS 578T breast = system: HS 578T breast
# MCF7 breast = system: MCF7 breast
# MDA-MB-231 breast = system: MDA-MB-231 breast
# MDA-MB-435 = system: MDA-MB-435
# MDA-N = system: MDA-N
# NCI/ADR-RES ovarian = system: NCI/ADR-RES ovarian
# PC-3 prostate = system: PC-3 prostate
# RXF 393 renal = system: RXF 393 renal
# T-47D breast = system: T-47D breast
smiles,measurement,setting,value
COc1ccc(C(N)=O)cc1N=NN(C)C,TGI,786-0 renal,> 100 µM
same,TGI,A498 renal,> 100 µM
same,TGI,A549 NSCLC,> 100 µM
same,TGI,ACHN renal,> 100 µM
same,TGI,CAKI-1 renal,> 100 µM
same,TGI,CCRF-CEM leukemia,> 100 µM
same,TGI,COLO 205 colon,> 100 µM
same,TGI,DLD-1 colon,> 100 µM
same,TGI,DMS 273 small cell lung,> 100 µM
same,TGI,EKVX NSCLC,> 100 µM
same,TGI,HCC-2998 colon,> 100 µM
same,TGI,HCT-116 colon,> 100 µM
same,TGI,HCT-15 colon,> 100 µM
same,TGI,HL-60(TB) leukemia,> 100 µM
same,TGI,HOP-18 NSCLC,> 100 µM
same,TGI,HOP-62 NSCLC,> 100 µM
same,TGI,HOP-92 NSCLC,> 100 µM
same,TGI,HT29 colon,> 100 µM
same,TGI,IGROV1 ovarian,> 100 µM
same,TGI,K-562 leukemia,> 100 µM
same,TGI,KM12 colon,> 100 µM
same,TGI,KM20L2 colon,> 100 µM
same,TGI,LOX IMVI melanoma,> 100 µM
same,TGI,LXFL 529 NSCLC,> 100 µM
same,TGI,M14 melanoma,> 100 µM
same,TGI,M19-MEL melanoma,> 100 µM
same,TGI,MALME-3M melanoma,> 100 µM
same,TGI,MOLT-4 leukemia,> 100 µM
same,TGI,NCI-H226 lung,> 100 µM
same,TGI,NCI-H23 lung,> 100 µM
same,TGI,NCI-H460 lung,> 100 µM
same,TGI,NCI-H522 lung,> 100 µM
same,TGI,OVCAR-3 ovarian,> 100 µM
same,TGI,OVCAR-4 ovarian,> 100 µM
same,TGI,OVCAR-5 ovarian,> 100 µM
same,TGI,OVCAR-8 ovarian,> 100 µM
same,TGI,RPMI-8226 leukemia,> 100 µM
same,TGI,SF-268 CNS,> 100 µM
same,TGI,SF-295 CNS,> 100 µM
same,TGI,SF-539 CNS,> 100 µM
same,TGI,SK-MEL-2 melanoma,> 100 µM
same,TGI,SK-MEL-28 melanoma,> 100 µM
same,TGI,SK-MEL-5 melanoma,> 100 µM
same,TGI,SK-OV-3 ovarian,> 100 µM
same,TGI,SN12C renal,> 100 µM
same,TGI,SNB-19 CNS,> 100 µM
same,TGI,SNB-75 CNS,> 100 µM
same,TGI,SR leukemia,> 100 µM
same,TGI,SW-620 colon,> 100 µM
same,TGI,TK-10 renal,> 100 µM
same,TGI,U251 CNS,> 100 µM
same,TGI,UACC-257 melanoma,> 100 µM
same,TGI,UACC-62 melanoma,> 100 µM
same,TGI,UO-31 renal,> 100 µM
O=C1Sc2ccc(Br)cc2C(=O)Sc2ccccc21,TGI,786-0 renal,25.6 µM
same,TGI,A498 renal,43.6 µM
same,TGI,A549 NSCLC,> 71.1 µM
same,TGI,ACHN renal,32.8 µM
same,TGI,BT-549 breast,28.2 µM
same,TGI,CAKI-1 renal,29.4 µM
same,TGI,CCRF-CEM leukemia,7.47 µM
same,TGI,COLO 205 colon,28.4 µM
same,TGI,DU-145 prostate,25.5 µM
same,TGI,EKVX NSCLC,22.2 µM
same,TGI,HCC-2998 colon,29.6 µM
same,TGI,HCT-116 colon,26.9 µM
same,TGI,HCT-15 colon,46.5 µM
same,TGI,HL-60(TB) leukemia,9.71 µM
same,TGI,HOP-62 NSCLC,28.4 µM
same,TGI,HOP-92 NSCLC,33.6 µM
same,TGI,HS 578T breast,39.3 µM
same,TGI,HT29 colon,35.3 µM
same,TGI,IGROV1 ovarian,31.6 µM
same,TGI,K-562 leukemia,> 59.3 µM
same,TGI,KM12 colon,33.8 µM
same,TGI,LOX IMVI melanoma,25.3 µM
same,TGI,M14 melanoma,26.6 µM
same,TGI,MALME-3M melanoma,23.6 µM
same,TGI,MCF7 breast,48.3 µM
same,TGI,MDA-MB-231 breast,31.7 µM
same,TGI,MDA-MB-435,21.7 µM
same,TGI,MDA-N,22.8 µM
same,TGI,MOLT-4 leukemia,19.9 µM
same,TGI,NCI-H226 lung,44.5 µM
same,TGI,NCI-H23 lung,36 µM
same,TGI,NCI-H460 lung,34 µM
same,TGI,NCI-H522 lung,22.1 µM
same,TGI,NCI/ADR-RES ovarian,60 µM
same,TGI,OVCAR-3 ovarian,27.2 µM
same,TGI,OVCAR-4 ovarian,29.8 µM
same,TGI,OVCAR-5 ovarian,36.8 µM
same,TGI,OVCAR-8 ovarian,24 µM
same,TGI,PC-3 prostate,26.1 µM
same,TGI,RPMI-8226 leukemia,16.7 µM
same,TGI,RXF 393 renal,12.4 µM
same,TGI,SF-268 CNS,22.3 µM
same,TGI,SF-295 CNS,57.5 µM
same,TGI,SF-539 CNS,26.4 µM
same,TGI,SK-MEL-2 melanoma,36.6 µM
same,TGI,SK-MEL-28 melanoma,42.7 µM
same,TGI,SK-MEL-5 melanoma,29.5 µM
same,TGI,SK-OV-3 ovarian,> 62.9 µM
same,TGI,SN12C renal,34.8 µM
same,TGI,SNB-19 CNS,29.5 µM
same,TGI,SNB-75 CNS,26.1 µM
same,TGI,SR leukemia,4.13 µM
same,TGI,SW-620 colon,67.7 µM
same,TGI,T-47D breast,31 µM
same,TGI,TK-10 renal,38.3 µM
same,TGI,U251 CNS,27.6 µM
same,TGI,UACC-257 melanoma,28.4 µM
same,TGI,UACC-62 melanoma,31.8 µM
same,TGI,UO-31 renal,27.1 µM
